Assay results from patent US8487108B2, “Piperidinyl carbamate intermediates for the synthesis of aspartic protease inhibitors” (Vitae Pharmaceuticals, Inc., priority 2005, dated 2013).

Assays:
[1] = target: T1, trypsin-activated recombinant human renin (Homo sapiens, UniProt P00797); test: Renin fluorescence assay (internally quenched peptide substrate); type: biochemical
T1 sequence (P00797 67-406): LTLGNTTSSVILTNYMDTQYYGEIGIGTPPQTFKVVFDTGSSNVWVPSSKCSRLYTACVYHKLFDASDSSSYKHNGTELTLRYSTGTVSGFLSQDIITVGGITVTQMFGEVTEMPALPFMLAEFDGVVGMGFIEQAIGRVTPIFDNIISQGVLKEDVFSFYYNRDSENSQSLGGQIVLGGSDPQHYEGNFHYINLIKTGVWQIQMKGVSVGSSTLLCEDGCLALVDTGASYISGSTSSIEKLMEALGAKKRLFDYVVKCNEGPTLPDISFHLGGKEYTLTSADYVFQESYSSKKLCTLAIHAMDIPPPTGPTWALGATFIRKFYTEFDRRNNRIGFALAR
Summary of the method: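 Compounds (1 nM–10 μM final, DMSO) were mixed with internally quenched angiotensinogen-sequence substrate in pH 7.0 BES/NaCl/BSA buffer, then 0.2-2 nM trypsin-activated human renin added. Rate from the linear fluorescence increase (340 nm excitation, 495 nm emission) over 60-360 min at rt, compared with uninhibited control.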

[2] = target: T2, plasma renin activity (PRA) in pooled mixed-gender human plasma (Homo sapiens, UniProt P00797); test: Plasma renin activity (PRA) assay in human plasma; type: biochemical
T2 construct: pooled mixed-gender human plasma stabilized with EDTA; from tissue; host or cells: pooled mixed-gender human plasma (EDTA)
T2 sequence (P00797 67-406): T1 sequence (P00797 67-406)
Protocol: Incubations mixtures contain in the final volume of 250 μL 95.5 mM N,N-bis(2-hydroxyethyl)-2-aminoethanesulfonic acid, pH 7.0, 8 mM EDTA, 0.1 mM neomycin sulfate, 1 mg/mL sodium azide, 1 mM phenylmethanesulfonyl fluoride, 2% DMSO and 87.3% of pooled mixed-gender human plasma stabilized with EDTA. For plasma batches with low PRA (less than 1 ng/ml/hr) ˜2 pM of recombinant human renin is added to achieve PRA of 3-4 ng/ml/hr. The cleavage of endogenous angiotensinogen in plasma is carried out at 37° C. for 90 min and the product angiotensin I is measured by competitive radioimmunoassay using DiaSorin PRA kit.

[3] = system: double transgenic rats engineered to express human renin and human angiotensinogen; test: Blood pressure by telemetry in double transgenic rats; type: in vivo, rat; conditions: dosage of 10 mg/kg, oral
Protocol: Double Transgenic Rats: The efficacy of the renin inhibitors can also evaluated in vivo in double transgenic rats engineered to express human renin and human angiotensinogen (Bohlender J, Fukamizu A, Lippoldt A, Nomura T, Dietz R, Menard J, Murakami K, Luft F C, Ganten D. High human renin hypertension in transgenic rats. Hypertension 1997, 29, 428-434).
(§1) Experiments were conducted in 6-week-old double transgenic rats (dTGRs). The model has been described in detail earlier. […] The human angiotensinogen construct made up the entire human angiotensinogen gene (5 exons and 4 introns), with 1.3 kB of 5′-flanking and 2.4 kB of 3′-flanking sequences. The rats were purchased from RCC Ltd (Füllinsdorf, Switzerland). Radio telemetry transmitters were surgically implanted at 4 weeks of age. The telemetry system provided 24-h recordings of systolic, mean, diastolic arterial pressure (SAP, MAP, DAP, respectively) and heart rate (HR). Beginning on day 42, animals were transferred to telemetry cages. A 24 h telemetry reading was obtained. Rats were then dosed orally on the following 4 consecutive days (days 43-46). The rats were monitored continuously and allowed free access to standard 0.3%-sodium rat chow and drinking water.

[4] = Plasma concentration in double transgenic rats after oral administration; type: in vivo, rat; conditions: 10 mg/kg oral
Protocol: FIG. 2 is a plot showing mean plasma concentrations of compound L-6a in transgenic rats over time following oral administration of 10 mg/kg of compound L-6a.
as §1

| SMILES | IC50 ([1]; compounds of Formula (XL)) | IC50 ([2]; compounds of Formula (XL)) | also measured |
| --- | --- | --- | --- |
| COC(=O)NCCO[C@@H](c1cc(F)cc(Cl)c1)[C@@H]1CCCN(C(=O)NC[C@@H](N)C[C@H]2CCCOC2)C1 [XL-3, methyl 2-((R)-((R)-1-((S)-2-amino-3-((R)-tetrahydro-2H-pyran-3-yl)propylcarbamoyl)piperidin-3-yl)(3-chloro-5-fluorophenyl)methoxy)ethylcarbamate] | < 10 nM | < 10 nM | – |
| COC(=O)NCCO[C@@H](c1cccc(Cl)c1)[C@@H]1CCCN(C(=O)NC[C@@H](N)C[C@H]2CCCOC2)C1 [XL-1, methyl 2-((R)-((R)-1-((S)-2-amino-3-((R)-tetrahydro-2H-pyran-3-yl)propylcarbamoyl)piperidin-3-yl)(3-chlorophenyl)methoxy)ethylcarbamate] | < 10 nM | < 10 nM | – |
| CN[C@H](CNC(=O)N1CCC[C@@H]([C@@H](OCCNC(=O)OC)c2cccc(Cl)c2)C1)C[C@H]1CCCOC1 [XL-7, methyl 2-((R)-(3-chlorophenyl)((R)-1-((S)-2-(methylamino)-3-((R)-tetrahydro-2H-pyran-3-yl)propylcarbamoyl)piperidin-3-yl)methoxy)ethylcarbamate] | < 1 nM | < 10 nM | effect in lowering blood pressures of double transgenic rats [3]: significant effect in lowering blood pressures |
| CN[C@H](CNC(=O)N1CCC[C@@H]([C@@H](OCCNC(=O)OC)c2cc(Cl)ccc2C)C1)C[C@H]1CCCOC1 [XL-8, methyl 2-((R)-(5-chloro-2-methylphenyl)((R)-1-((S)-2-(methylamino)-3-((R)-tetrahydro-2H-pyran-3-yl)propylcarbamoyl)piperidin-3-yl)methoxy)ethylcarbamate] | < 1 nM | < 10 nM | – |
| COC(=O)NCCO[C@@H](c1cc(Cl)ccc1C)[C@@H]1CCCN(C(=O)NC[C@@H](N)C[C@H]2CCCOC2)C1 [XL-5, methyl 2-((R)-((R)-1-((S)-2-amino-3-((R)-tetrahydro-2H-pyran-3-yl)propylcarbamoyl)piperidin-3-yl)(5-chloro-2-methylphenyl)methoxy)ethylcarbamate] | < 1 nM | < 1 nM | – |
| COC(=O)NCCO[C@@H](c1cc(F)cc(F)c1)[C@@H]1CCCN(C(=O)NC[C@@H](N)C[C@H]2CCCOC2)C1 [XL-4, methyl 2-((R)-((R)-1-((S)-2-amino-3-((R)-tetrahydro-2H-pyran-3-yl)propylcarbamoyl)piperidin-3-yl)(3,5-difluorophenyl)methoxy)ethylcarbamate] | < 10 nM | < 10 nM | – |
| CNC[C@H](C[C@H]1CCCOC1)NC(=O)N1CCC[C@@H]([C@@H](OCCNC(=O)OC)c2cccc(Cl)c2)C1 [Example L-6a, methyl 2-((R)-(3-chlorophenyl)((R)-1-((S)-1-(methylamino)-3-((R)-tetrahydro-2H-pyran-3-yl)propan-2-ylcarbamoyl)-piperidin-3-yl)methoxy)-ethylcarbamate] | – | – | effect in lowering blood pressures of double transgenic rats [3]: significant effect in lowering blood pressures; availability in rat's plasma following oral administration [4]: readily available in rat's plasma; metabolic stability [4]: excellent; oral bioavailability [4]: excellent; plasma concentration over 24 h period ([4]; over 24 h): remains relatively high |
| COC(=O)NCCO[C@@H](c1cc(F)ccc1C)[C@@H]1CCCN(C(=O)NC[C@@H](N)C[C@H]2CCCOC2)C1 [XL-6, methyl 2-((R)-((R)-1-((S)-2-amino-3-((R)-tetrahydro-2H-pyran-3-yl)propylcarbamoyl)piperidin-3-yl)(5-fluoro-2-methylphenyl)methoxy)ethylcarbamate] | < 10 nM | < 50 nM | – |
| CNC[C@@H](CC1CCCOC1)NC(=O)N1CCC[C@@H]([C@@H](OCCNC(=O)OC)c2cc(F)cc(Cl)c2)C1 (single isomer, unassigned) [Example L-3d] | – | – | IC50 ([1]; compounds of Formula (L)): < 20 nM; IC50 ([2]; compounds of Formula (L)): < 20 nM |
| CNC[C@@H](CC1CCCOC1)NC(=O)N1CCC[C@@H]([C@@H](OCCNC(=O)OC)c2cc(F)cc(Cl)c2)C1 (single isomer, unassigned) [Example L-3c] | – | – | IC50 ([1]; compounds of Formula (L)): < 10 nM; IC50 ([2]; compounds of Formula (L)): < 10 nM |
| COC(=O)NCCO[C@@H](c1cccc(F)c1)[C@@H]1CCCN(C(=O)NC[C@@H](N)C[C@H]2CCCOC2)C1 [XL-2, methyl 2-((R)-((R)-1-((S)-2-amino-3-((R)-tetrahydro-2H-pyran-3-yl)propylcarbamoyl)piperidin-3-yl)(3-fluorophenyl)methoxy)ethylcarbamate] | < 10 nM | < 20 nM | – |
| CN[C@H](CNC(=O)N1CCC[C@@H]([C@@H](OCCNC(=O)OC)c2cccc(Cl)c2)C1)C[C@H]1CCCCOC1 [I*-110a, methyl 2-((R)-(3-chlorophenyl)((R)-1-((S)-2-(methylamino)-3-((R)-oxepan-3-yl)propylcarbamoyl)piperidin-3-yl)methoxy)ethylcarbamate] | – | – | IC50 ([1]; compounds I*): < 1 nM |
